Results from ChEMBL document CHEMBL3758163, “Extended structure-activity study of thienopyrimidine-based EGFR inhibitors with evaluation of drug-like properties” (Eur J Med Chem, 2016).

How the values were obtained:
[1] = molecular target: Tyrosine-protein kinase Fer (Homo sapiens) (UniProt P16591); assay: Inhibition of FER (unknown origin) at 500 nM
[2] = molecular target: Mitogen-activated protein kinase 14 (Homo sapiens) (UniProt Q16539); assay: Inhibition of MAPK14 (unknown origin) at 500 nM
Sequence of Mitogen-activated protein kinase 14 (Homo sapiens) (Q16539 whole entry): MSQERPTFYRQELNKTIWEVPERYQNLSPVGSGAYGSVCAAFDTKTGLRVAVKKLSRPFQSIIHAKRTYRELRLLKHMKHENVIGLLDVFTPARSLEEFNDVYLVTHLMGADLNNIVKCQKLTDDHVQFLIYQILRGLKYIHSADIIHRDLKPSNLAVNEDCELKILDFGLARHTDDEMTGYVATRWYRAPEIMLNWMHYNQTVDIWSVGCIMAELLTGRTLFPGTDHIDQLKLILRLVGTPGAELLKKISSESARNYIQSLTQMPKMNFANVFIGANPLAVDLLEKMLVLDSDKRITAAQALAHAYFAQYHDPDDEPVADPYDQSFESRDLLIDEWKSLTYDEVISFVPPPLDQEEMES

[3] = molecular target: Proto-oncogene tyrosine-protein kinase receptor Ret (Homo sapiens) (UniProt P07949); assay: Inhibition of RET (unknown origin) at 500 nM
Sequence of Proto-oncogene tyrosine-protein kinase receptor Ret (Homo sapiens) (P07949 whole entry): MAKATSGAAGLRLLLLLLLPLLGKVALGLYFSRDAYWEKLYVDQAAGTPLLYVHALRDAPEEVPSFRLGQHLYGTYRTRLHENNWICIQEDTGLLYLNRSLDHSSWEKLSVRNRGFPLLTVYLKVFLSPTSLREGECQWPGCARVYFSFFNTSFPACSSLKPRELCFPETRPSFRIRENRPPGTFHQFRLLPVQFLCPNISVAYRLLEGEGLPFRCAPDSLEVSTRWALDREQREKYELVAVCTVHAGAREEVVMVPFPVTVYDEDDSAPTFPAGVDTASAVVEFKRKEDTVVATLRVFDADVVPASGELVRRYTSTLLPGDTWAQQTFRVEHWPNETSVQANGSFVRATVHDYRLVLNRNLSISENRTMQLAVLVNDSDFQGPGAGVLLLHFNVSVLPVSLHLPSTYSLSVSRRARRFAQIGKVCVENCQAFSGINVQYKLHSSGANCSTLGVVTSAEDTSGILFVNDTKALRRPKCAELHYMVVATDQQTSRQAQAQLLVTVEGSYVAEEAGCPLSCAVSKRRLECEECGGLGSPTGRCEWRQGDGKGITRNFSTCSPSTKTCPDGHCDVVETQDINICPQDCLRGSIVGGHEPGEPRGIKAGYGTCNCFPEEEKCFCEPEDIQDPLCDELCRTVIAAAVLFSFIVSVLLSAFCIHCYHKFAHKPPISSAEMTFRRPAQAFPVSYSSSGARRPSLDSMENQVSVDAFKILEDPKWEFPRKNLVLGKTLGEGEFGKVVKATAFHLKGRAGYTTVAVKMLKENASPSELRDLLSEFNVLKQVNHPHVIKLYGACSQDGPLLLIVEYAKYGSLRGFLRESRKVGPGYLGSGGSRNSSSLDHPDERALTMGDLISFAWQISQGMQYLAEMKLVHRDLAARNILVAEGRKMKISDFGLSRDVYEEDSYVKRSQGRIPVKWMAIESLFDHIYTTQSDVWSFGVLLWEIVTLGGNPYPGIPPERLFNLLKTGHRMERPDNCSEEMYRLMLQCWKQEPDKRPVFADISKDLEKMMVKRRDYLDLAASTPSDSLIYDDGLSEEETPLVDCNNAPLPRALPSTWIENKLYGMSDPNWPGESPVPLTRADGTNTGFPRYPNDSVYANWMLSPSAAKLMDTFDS

[4] = molecular target: T1, Inhibitor of nuclear factor kappa-B kinase subunit beta (Homo sapiens) (UniProt O14920); assay: Inhibition of IKBKB (unknown origin) at 500 nM
T1 sequence (whole entry): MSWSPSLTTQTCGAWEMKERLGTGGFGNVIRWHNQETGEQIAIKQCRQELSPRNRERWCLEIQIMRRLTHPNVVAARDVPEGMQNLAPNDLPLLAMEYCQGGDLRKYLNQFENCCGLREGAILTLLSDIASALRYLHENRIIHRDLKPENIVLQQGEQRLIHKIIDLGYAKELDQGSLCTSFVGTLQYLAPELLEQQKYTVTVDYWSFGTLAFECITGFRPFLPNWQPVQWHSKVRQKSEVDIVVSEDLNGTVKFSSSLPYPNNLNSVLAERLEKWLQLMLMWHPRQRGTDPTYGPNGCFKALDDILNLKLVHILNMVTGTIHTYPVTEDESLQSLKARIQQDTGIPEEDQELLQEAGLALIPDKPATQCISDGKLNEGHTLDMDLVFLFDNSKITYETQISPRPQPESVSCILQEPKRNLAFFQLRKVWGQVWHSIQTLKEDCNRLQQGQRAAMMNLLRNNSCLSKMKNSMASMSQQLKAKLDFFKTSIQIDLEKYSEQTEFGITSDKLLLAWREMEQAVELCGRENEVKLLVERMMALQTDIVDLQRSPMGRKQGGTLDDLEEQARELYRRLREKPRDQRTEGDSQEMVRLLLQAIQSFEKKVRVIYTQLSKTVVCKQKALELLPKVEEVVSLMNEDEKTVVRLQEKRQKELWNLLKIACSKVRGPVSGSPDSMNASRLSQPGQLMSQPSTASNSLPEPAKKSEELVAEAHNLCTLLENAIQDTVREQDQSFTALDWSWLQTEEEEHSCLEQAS

[5] = molecular target: Protein kinase C theta type (Homo sapiens) (UniProt Q04759); assay: Inhibition of PRKCQ (unknown origin) at 500 nM
[6] = molecular target: Tyrosine-protein kinase Lyn (Homo sapiens) (UniProt P07948); assay: Inhibition of LYN A (unknown origin) at 500 nM
Sequence of Tyrosine-protein kinase Lyn (Homo sapiens) (P07948 2-512 limits assumed): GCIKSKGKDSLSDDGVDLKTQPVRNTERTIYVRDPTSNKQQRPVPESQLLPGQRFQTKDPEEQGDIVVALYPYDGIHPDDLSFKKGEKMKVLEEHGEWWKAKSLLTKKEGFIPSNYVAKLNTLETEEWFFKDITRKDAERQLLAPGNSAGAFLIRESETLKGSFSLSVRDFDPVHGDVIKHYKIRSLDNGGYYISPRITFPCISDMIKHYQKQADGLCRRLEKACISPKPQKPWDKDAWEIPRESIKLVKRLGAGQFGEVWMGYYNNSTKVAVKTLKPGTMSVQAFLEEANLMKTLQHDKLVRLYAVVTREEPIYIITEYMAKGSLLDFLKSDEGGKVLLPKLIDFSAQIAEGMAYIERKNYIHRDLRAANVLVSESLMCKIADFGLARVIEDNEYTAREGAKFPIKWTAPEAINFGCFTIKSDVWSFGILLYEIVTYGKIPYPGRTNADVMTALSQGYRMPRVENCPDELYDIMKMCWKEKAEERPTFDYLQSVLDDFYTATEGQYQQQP

[7] = molecular target: Glycogen synthase kinase-3 beta (Homo sapiens) (UniProt P49841); assay: Inhibition of GSK3B (unknown origin) at 500 nM
Sequence of Glycogen synthase kinase-3 beta (Homo sapiens) (P49841 whole entry, looked up): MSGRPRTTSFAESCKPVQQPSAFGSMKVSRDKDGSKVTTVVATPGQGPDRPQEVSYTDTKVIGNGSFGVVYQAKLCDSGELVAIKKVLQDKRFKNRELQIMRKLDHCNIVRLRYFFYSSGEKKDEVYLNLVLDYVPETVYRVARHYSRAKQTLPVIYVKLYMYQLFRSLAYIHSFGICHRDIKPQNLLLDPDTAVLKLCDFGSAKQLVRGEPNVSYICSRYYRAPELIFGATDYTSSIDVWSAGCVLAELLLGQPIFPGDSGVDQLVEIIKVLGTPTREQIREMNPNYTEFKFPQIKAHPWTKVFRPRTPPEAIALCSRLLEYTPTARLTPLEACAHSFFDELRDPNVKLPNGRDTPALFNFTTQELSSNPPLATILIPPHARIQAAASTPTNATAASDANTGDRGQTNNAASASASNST

[8] = molecular target: Tyrosine-protein kinase Lyn (Homo sapiens) (UniProt P07948); assay: Inhibition of LYN B (unknown origin) at 500 nM
[9] = molecular target: Tyrosine-protein kinase JAK2 (Homo sapiens) (UniProt O60674); assay: Inhibition of JAK2 (unknown origin) at 500 nM
[10] = molecular target: Platelet-derived growth factor receptor beta (Homo sapiens) (UniProt P09619); assay: Inhibition of PDGFRB (unknown origin) at 500 nM
Sequence of Platelet-derived growth factor receptor beta (Homo sapiens) (P09619 whole entry): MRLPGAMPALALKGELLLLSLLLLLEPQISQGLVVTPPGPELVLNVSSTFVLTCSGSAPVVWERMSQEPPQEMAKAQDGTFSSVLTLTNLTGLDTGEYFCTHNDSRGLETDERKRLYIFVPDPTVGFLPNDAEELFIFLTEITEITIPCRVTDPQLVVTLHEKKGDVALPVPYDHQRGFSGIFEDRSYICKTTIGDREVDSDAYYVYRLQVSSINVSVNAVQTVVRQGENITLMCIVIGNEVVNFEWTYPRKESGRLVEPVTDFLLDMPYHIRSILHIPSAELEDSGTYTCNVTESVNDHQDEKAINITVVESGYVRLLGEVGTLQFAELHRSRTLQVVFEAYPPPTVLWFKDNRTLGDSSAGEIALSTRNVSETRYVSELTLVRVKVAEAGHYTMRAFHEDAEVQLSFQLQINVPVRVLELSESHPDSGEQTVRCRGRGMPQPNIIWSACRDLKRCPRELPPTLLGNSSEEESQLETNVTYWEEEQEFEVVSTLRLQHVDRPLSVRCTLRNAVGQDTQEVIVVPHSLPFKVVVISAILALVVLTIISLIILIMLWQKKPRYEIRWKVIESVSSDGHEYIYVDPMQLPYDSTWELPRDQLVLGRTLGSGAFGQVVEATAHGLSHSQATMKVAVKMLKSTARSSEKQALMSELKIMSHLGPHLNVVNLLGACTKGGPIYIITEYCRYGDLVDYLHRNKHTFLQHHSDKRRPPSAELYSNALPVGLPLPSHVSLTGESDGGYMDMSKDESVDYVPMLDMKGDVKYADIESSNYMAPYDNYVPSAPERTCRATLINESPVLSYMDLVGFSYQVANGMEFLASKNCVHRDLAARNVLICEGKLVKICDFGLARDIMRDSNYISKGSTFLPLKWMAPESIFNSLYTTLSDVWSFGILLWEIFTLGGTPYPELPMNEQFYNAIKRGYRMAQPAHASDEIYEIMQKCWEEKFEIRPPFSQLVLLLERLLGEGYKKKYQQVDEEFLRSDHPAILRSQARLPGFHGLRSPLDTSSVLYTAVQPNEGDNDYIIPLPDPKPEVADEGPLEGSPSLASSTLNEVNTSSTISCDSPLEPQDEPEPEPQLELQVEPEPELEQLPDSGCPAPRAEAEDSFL

[11] = molecular target: Tyrosine-protein kinase Fyn (Homo sapiens) (UniProt P06241); assay: Inhibition of FYN (unknown origin) at 500 nM
Sequence of Tyrosine-protein kinase Fyn (Homo sapiens) (P06241 2-537 limits assumed): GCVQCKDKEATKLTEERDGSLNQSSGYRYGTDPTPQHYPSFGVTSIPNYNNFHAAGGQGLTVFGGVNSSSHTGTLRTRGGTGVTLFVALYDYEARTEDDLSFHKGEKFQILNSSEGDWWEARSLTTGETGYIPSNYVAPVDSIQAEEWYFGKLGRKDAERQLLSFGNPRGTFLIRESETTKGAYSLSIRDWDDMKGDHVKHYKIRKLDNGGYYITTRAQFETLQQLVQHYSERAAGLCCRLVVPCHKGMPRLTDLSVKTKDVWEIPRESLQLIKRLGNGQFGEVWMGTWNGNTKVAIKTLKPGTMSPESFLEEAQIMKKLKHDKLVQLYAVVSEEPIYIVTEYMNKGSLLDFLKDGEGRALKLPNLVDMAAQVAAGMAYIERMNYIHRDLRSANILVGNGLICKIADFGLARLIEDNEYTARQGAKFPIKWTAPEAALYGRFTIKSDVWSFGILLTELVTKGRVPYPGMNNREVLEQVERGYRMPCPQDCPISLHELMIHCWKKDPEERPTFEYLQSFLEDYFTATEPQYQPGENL

[12] = molecular target: cAMP-dependent protein kinase catalytic subunit alpha (Homo sapiens) (UniProt P17612); assay: Inhibition of PRKACA (unknown origin) at 500 nM
[13] = molecular target: T2, Ephrin type-A receptor 1 (Homo sapiens) (UniProt P21709); assay: Inhibition of EPHA1 (unknown origin) at 500 nM
T2 sequence (whole entry): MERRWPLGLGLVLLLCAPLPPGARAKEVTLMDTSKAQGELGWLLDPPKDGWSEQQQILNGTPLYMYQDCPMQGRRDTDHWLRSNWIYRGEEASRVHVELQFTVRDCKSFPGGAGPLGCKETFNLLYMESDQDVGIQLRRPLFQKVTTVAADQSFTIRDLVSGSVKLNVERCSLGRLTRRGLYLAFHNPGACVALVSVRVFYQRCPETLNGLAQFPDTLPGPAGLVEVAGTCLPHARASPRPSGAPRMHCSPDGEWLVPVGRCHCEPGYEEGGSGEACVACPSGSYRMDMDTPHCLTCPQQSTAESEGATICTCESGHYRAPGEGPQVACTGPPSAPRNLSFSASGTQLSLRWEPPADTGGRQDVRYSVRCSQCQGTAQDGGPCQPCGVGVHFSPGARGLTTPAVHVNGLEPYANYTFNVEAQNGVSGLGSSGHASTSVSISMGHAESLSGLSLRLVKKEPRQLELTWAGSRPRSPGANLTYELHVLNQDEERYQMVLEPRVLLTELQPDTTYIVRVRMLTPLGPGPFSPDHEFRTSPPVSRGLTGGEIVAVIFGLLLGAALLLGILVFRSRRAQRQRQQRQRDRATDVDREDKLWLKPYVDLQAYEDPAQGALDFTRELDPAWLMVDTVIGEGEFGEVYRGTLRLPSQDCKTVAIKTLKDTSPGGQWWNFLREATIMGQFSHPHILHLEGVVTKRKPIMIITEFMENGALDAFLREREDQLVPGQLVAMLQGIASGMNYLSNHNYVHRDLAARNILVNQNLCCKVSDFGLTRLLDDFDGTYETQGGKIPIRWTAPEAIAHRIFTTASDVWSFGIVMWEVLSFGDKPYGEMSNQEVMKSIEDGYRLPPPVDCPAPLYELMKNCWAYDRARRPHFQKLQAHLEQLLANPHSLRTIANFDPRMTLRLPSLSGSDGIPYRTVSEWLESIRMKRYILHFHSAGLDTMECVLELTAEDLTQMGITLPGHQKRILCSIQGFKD

[14] = molecular target: Receptor tyrosine-protein kinase erbB-4 (Homo sapiens) (UniProt Q15303); assay: Inhibition of ERBB4 (unknown origin) at 500 nM
[15] = Half-life in human liver microsomes at 3 uM by LC-MS/MS analysis; format: ADME

Sequence of Tyrosine-protein kinase Fer (Homo sapiens) (P16591 whole entry, looked up): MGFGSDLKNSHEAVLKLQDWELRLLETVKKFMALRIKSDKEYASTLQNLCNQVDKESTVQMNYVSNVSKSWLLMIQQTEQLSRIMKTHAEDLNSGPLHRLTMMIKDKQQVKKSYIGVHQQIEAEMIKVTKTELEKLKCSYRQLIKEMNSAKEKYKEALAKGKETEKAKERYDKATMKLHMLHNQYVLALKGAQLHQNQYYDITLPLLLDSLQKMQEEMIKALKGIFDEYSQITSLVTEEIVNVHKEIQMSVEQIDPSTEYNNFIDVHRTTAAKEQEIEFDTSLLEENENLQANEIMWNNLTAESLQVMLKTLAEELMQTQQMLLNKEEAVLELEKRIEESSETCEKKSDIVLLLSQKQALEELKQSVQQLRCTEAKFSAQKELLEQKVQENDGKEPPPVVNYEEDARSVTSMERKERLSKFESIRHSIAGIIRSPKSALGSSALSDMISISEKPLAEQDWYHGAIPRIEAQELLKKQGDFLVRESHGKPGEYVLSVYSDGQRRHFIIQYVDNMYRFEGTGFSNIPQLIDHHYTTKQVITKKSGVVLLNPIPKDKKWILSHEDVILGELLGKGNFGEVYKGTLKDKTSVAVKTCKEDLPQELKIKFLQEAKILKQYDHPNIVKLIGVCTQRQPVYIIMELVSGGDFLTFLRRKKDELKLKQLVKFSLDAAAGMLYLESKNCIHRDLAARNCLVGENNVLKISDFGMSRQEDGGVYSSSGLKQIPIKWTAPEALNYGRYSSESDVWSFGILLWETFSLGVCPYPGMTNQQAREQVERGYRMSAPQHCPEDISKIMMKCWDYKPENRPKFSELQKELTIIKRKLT

inhibition [1] [%] | inhibition [2] [%] | inhibition [3] [%] | inhibition [4] [%] | inhibition [5] [%] | inhibition [6] [%] | inhibition [7] [%] | inhibition [8] [%] | inhibition [9] [%] | inhibition [10] [%] | inhibition [11] [%] | inhibition [12] [%] | inhibition [13] [%] | inhibition [14] [%] | half-life at 3 µM [15] [h] | SMILES
-4 | 7 | -2 | 7 | -5 | 38 | 5 | 41 | -10 | 6 | 19 | -6 | 11 | 14 |  | C[C@@H](Nc1ncnc2sc(-c3ccc(C(=O)NCCN(C)C)cc3)cc12)c1ccccc1
0 | 8 | 26 | 4 | -10 | 24 | 5 | 22 | -2 | -3 | 6 | 2 | 13 | 22 |  | COc1cc(CO)ccc1-c1cc2c(Nc3ccccc3)ncnc2s1
5 | 8 | 7 | 3 | 0 | 57 | 13 | 62 | -4 | 0 | 8 | 9 | 7 | 46 | 1.93 | COc1ccc(C(=O)NCCN(C)C)cc1-c1cc2c(N[C@H](C)c3ccccc3)ncnc2s1
-1 | 6 | 16 | 1 | 3 | 13 | 4 | 15 | -3 | -3 | 5 | 8 | 12 | 31 | 2.6 | COc1cc(CO)ccc1-c1cc2c(Nc3ccc(F)c(Cl)c3)ncnc2s1
10 | 1 | 5 | 10 | 1 | 61 | 7 | 57 | 7 | 3 | 1 | 2 | 1 | 30 |  | COc1cc(CO)ccc1-c1cc2c(N[C@H](C)c3ccccc3)ncnc2s1
-4 | 9 | 20 | 3 | 12 | 31 | 3 | 37 | -3 | -5 | 23 | -5 | 15 | 30 | 1.1 | CN(C)CCNC(=O)c1ccc(-c2cc3c(N[C@H](CO)c4ccccc4)ncnc3s2)cc1
-4 | 9 | -5 | 6 | -1 | 16 | 6 | 16 | -8 | 6 | 7 | -8 | 11 | 10 |  | C[C@@H](Nc1ncnc2sc(-c3ccccc3C(N)=O)cc12)c1ccccc1
-2 |  | 0 | -4 | -5 | 13 | 8 | 9 | 6 | 13 | 0 | -1 | 2 | 12 |  | C#Cc1cccc(Nc2ncnc3sc(-c4ccc(CO)cc4OC)cc23)c1
-1 | 13 | 64 | -5 | -4 | 68 | -8 |  | 25 | -5 |  | -10 | 3 | 78 | 0.533 | C#Cc1cccc(Nc2ncnc3cc(OCCOC)c(OCCOC)cc23)c1 [ERLOTINIB]

SMILES | inhibition [1] [%] | inhibition [2] [%] | inhibition [3] [%] | inhibition [4] [%] | inhibition [5] [%] | inhibition [6] [%] | inhibition [7] [%] | inhibition [8] [%] | inhibition [9] [%] | inhibition [10] [%] | inhibition [11] [%] | inhibition [12] [%] | inhibition [13] [%] | inhibition [14] [%] | half-life at 3 µM [15] [h]
COc1cc(C(N)=O)ccc1-c1cc2c(N[C@H](CO)c3ccccc3)ncnc2s1 | -3 | 6 | 5 | 3 | -2 | 47 | 17 | 57 | -2 | 8 | 16 | -5 | 12 | 62 | 5.13
COc1cc(CO)ccc1-c1cc2c(N[C@H](CO)c3ccccc3)ncnc2s1 | 8 | 13 | 9 | 1 | 1 | 40 | 8 | 56 | 9 | 1 | 12 | 1 | 1 | 63 | 2.57
